Measurements as given in patent US20240099344A1, “HYDROXY- AND METHOXY-SUBSTITUTED FLAVONOIDS AND THEIR USE” (Firmenich SA, priority 2021, published 2024).

How the values were obtained:
[1] = tested on: human sensory panel (sweet, bitter or astringent taste); assay: Sensory testing in model bases (human sensory panel, 20 trained panelists); assay type: in vivo; conditions: 10 ppm; scale of −5 (strong masking effect) to 5 (strong enhancing effect); 0 = reference water solution containing 4% sucrose or 10 ppm mixture of Limonin, Naringin and Nomilin
Description: Certain HMF compounds were tasted by a human sensory panel to assess their ability to reduce bitterness, reduce astringency, and enhance sweetness. The panel consisted of 20 trained panelists evaluating the samples at 10 ppm for taste properties (sweet, bitter or astringent) on a scale of −5 to 5 (−5 denoted strong masking effect and 5 denoted strong enhancing effect, 0 being the intensity of a reference water solution containing 4% sucrose or 10 ppm mixture of Limonin, Naringin and Nomilin).

[2] = tested on: human sensory panel (bitter and astringent taste); assay: Sensory testing in applications (human sensory panel, 8 experts); assay type: in vivo; conditions: scale of −5 (strong masking) to 5 (strong enhancing), 0 = reference application; for Smart Protein Beverage Astringent / Smart Protein Beverage Bitter / Smart Protein Beverage Off-flavor: 10 ppm in smart protein beverage
Description: Certain HMF compounds were tasted by a human sensory panel to assess their ability to reduce bitterness and astringency. The panel consisted of 8 experts evaluating the samples at 10 ppm for taste properties (bitter and astringent) on a scale of −5 to 5 (−5 denoted strong masking effect and 5 denoted strong enhancing effect, 0 being the intensity of a reference application in coffee, tea or pomegranate juice, smart protein beverage).

Structure (SMILES) | Astringency [1] | Bitterness [1] | Sweetness [1] | Coffee Astringency ([2]; 10 ppm in coffee) | Coffee Bitterness ([2]; 10 ppm in coffee) | Pomegranate Juice Astringency ([2]; 10 ppm in pomegranate juice) | Pomegranate Juice Bitterness ([2]; 10 ppm in pomegranate juice) | Smart Protein Beverage Astringent [2] | Smart Protein Beverage Bitter [2] | Smart Protein Beverage Off-flavor [2] | Tea Astringency ([2]; 10 ppm in tea) | Tea Bitterness ([2]; 10 ppm in tea)
COc1ccc(-c2cc(=O)c3c(O)c(OC)c(O)c(OC)c3o2)cc1 [Compound 101, 5,7-dihydroxy-6,8,4′-trimethoxyflavone] | −1.21 | −1.59 | −0.23 | 0.17 | −0.58 | 0.67 | 0.31 | 0.4 | −0.6 | −0.1 | 1.00 | 0.83
O=c1cc(-c2ccc(O)cc2)oc2cc(O)c(O)c(O)c12 [Compound 103, 5,6,7,4′-tetrahydroxyflavone] | −0.35 | −1.28 | 0.50 | – | – | – | – | 0.25 | 0.00 | −0.50 | – | –
COc1c(O)cc2oc(-c3ccccc3)cc(=O)c2c1O [Compound 104, 5,7-dihydroxy-6-methoxyflavone] | −0.48 | −1.08 | 0.17 | – | – | – | – | – | – | – | – | –
COc1ccc(-c2cc(=O)c3c(O)c(OC)c(O)cc3o2)cc1OC [Compound 105, 5,7-dihydroxy-6,3′,4′-trimethoxyflavone] | −0.53 | −2.02 | 0.58 | – | – | – | – | −1.0 | −0.80 | −0.80 | – | –
COc1cc(-c2oc3cc(O)cc(O)c3c(=O)c2O)ccc1O [Compound 106, 3,4′,5,7-tetrahydroxy-3′-methoxyflavone] | −0.34 | −1.47 | 0.58 | – | – | – | – | – | – | – | – | –
COc1cc(O)cc2c1C(=O)CC(c1ccccc1)O2 (stereo not drawn) [Compound 107, 5-methoxy-7-hydroxyflavanone] | −1.56 | −2.56 | 0.08 | – | – | – | – | – | – | – | – | –
COc1ccc(-c2oc3cc(OC)c(OC)c(O)c3c(=O)c2OC)cc1O [Compound 108, 3,6,7,4′-tetramethoxy-5,3′-dihydroxyflavone] | −1.01 | −1.94 | −0.08 | – | – | – | – | −0.33 | −0.42 | −0.33 | – | –
COc1c(O)cc(O)c2c(=O)cc(-c3ccccc3)oc12 [Compound 109, 5,7-dihydroxy-8-methoxyflavone] | −0.64 | −1.54 | −0.58 | – | – | – | – | – | – | – | – | –
